Measurements as given in patent publication US20210268070A1, “Use of Immunomodulators to Control Infection and Stimulate Healing in Normal and Diabetic Wounds” (priority 2018, published 2021).

Experiments:
Type in all cases: in vivo
[1] = system: S. aureus; assay: S. aureus surgical site infection, implant model; conditions: S. aureus 10^6 CFU, titers after 1 day, compared to PBS, FIGS. 5A and 5B
Description: FIGS. 5A and 5B illustrate that PAMPs are effective in controlling S. aureus surgical site infection as prophylactic antibiotic standard therapy. S. aureus (10^6 CFU). S. aureus titers after 1 day. Significance determined as compared to PBS *<0.05, **p<0.01, ***p<0.001, ****p<0.0001.
We next examined the impact of CCL3 topical treatment on leukocyte migration by H&E staining, and on leukocyte activation by myeloperoxidase (MPO) measurements by ELISA. (MPO is primarily used as a marker for neutrophil activation but it can also be expressed to lesser extent in macrophages).
Implant surgery and wound surgery and surgical site infection are performed according to the following method. On the day of surgery, all mice are anesthetized by an intraperitoneal injection of a ketamine/xylazine mixture (90 mg/kg ketamine+5 mg/kg xylazine for mice). The back of the animals is shaved using an electric shave and scrubbed with alcohol swabs 3 times, a topical antiseptic solution (Hibiclens; chlorhexidine gluconate) is applied to the skin. The surgical procedures are performed with sterile instruments, sterile surgical gloves, and aseptic techniques as follows. For wound surgical procedure, a sterile biopsy punch (5-7 mm diameter) is used to punch through the full thickness of the back skin below the shoulder blades. Four 5-7 mm skin wounds are made on the back of each mouse. […]

[2] = system: P. aeruginosa PA103; assay: Wound model of infection with PA103 in diabetic db/db mice; conditions: for infection control against P. aeruginosa in diabetic wounds infected with PA103: 10^6 PA103, topical at time of surgery & infection, 24 h, FIG. 2D
Procedure: (§1) The implant model of infection in C57B mice was used for 10^6 PA103 (FIG. 2A) or 10^6 USA300 MRSA (FIG. 2C). The wound model of infection was used for 10^6 PA103 in C57BL mice (FIG. 2B) or diabetic db/db mice (FIG. 2D). Infection was carried out at the time of surgery by adding bacteria directly to the surgical sites. Immunomodulators, namely, LPS (10 ng or 100 ng), fMLP (10 ng or 100 ng), CCL3 (1 μg) were added topically at the surgical sites at the time of surgery & infection. GM-CSF (10 μg/kg), tobramycin (Tob at 3.5 mg/kg), and vancomycin (40 mg/kg) were added systemically by i.p. injection 1 h before surgical implantation and infection. Infection levels were determined 24 h following infection (N>4 animals/group; NS=not significant, * p<0.01, ** p<0.001, ***p<0.0001 One-way ANOVA).
(§2) We assessed these immunomodulators for their ability to control wound and/or implant SS's in normal (C57BL/6) or diabetic (db/db) mice. We acknowledge that diabetic individuals are not as immunocompromised as other immunocompromised patient groups. […] All immunomodulators were added locally at the surgical sites at the time of infection, except GM-CSF (10 μg/kg) which was administered systemically by i.p. injection 1 h prior to surgery per its FDA-approved route of delivery. […] CCL3 and GM-CSF are also tested using the implant model of infection. Here, we tested CCL3 and GM-CSF in the wound model of infection in C57B mice.
Implant surgery and wound surgery and surgical site infection are performed according to the following method. On the day of surgery, all mice are anesthetized by an intraperitoneal injection of a ketamine/xylazine mixture (90 mg/kg ketamine+5 mg/kg xylazine for mice). The back of the animals is shaved using an electric shave and scrubbed with alcohol swabs 3 times, a topical antiseptic solution (Hibiclens; chlorhexidine gluconate) is applied to the skin. The surgical procedures are performed with sterile instruments, sterile surgical gloves, and aseptic techniques as follows. For wound surgical procedure, a sterile biopsy punch (5-7 mm diameter) is used to punch through the full thickness of the back skin below the shoulder blades. Four 5-7 mm skin wounds are made on the back of each mouse. Wounds placed in this area cannot be reached by the animals and therefore are protected from self-licking. For implant surgery, a 4-mm long lateral skin incision is made on the upper back, and the skin is retracted. The space above the muscle is opened using blunt dissection with fine forceps, to create a rostral fascia indentation. Then, immunomodulators at indicated concentrations (in a 20 μL volume) or PBS control are injected into the fascia indentation. After a 1 min wait for fluid to be absorbed, a disc implant, (1.87 mm diameter, 0.68 mm thick (Part # VP 724F-1)), is inserted in the fascia indentation. […] For implant surgery, the fascia indentation is left open, while the skin is closed with 4-0 nylon sutures. The fascia above the back muscles in mice is too thin and fragile to allow it to be sutured closed around the implant.

[3] = system: P. aeruginosa PA103; assay: Implant model of infection with PA103; conditions: C57B mice, 10^6 PA103, topical at surgical site at time of surgery & infection, 10 ng or 100 ng, dose-dependent, 24 h following infection, FIG. 2A
Procedure: as §1, §2
Implant surgery and wound surgery and surgical site infection are performed according to the following method. On the day of surgery, all mice are anesthetized by an intraperitoneal injection of a ketamine/xylazine mixture (90 mg/kg ketamine+5 mg/kg xylazine for mice). The back of the animals is shaved using an electric shave and scrubbed with alcohol swabs 3 times, a topical antiseptic solution (Hibiclens; chlorhexidine gluconate) is applied to the skin. The surgical procedures are performed with sterile instruments, sterile surgical gloves, and aseptic techniques as follows. […]

lipopolysaccharide [LPS]
infection control in the implant model against S. aureus [1]: improved | antimicrobial defenses in diabetic wounds against P. aeruginosa ([2]; compared to PBS, FIG. 13A): increases | infection control against P. aeruginosa in diabetic wounds infected with PA103 ([2]; db/db mice): significantly improved | P. aeruginosa infection levels on both the implants and tissues surrounding implants [3]: significantly reduced

CSCC[C@H](NC=O)C(=O)N[C@@H](CC(C)C)C(=O)N[C@@H](Cc1ccccc1)C(=O)O [fMLP, N-Formylmethionyl-leucyl-phenylalanine]
infection control in the implant model against S. aureus [1]: improved | infection control against P. aeruginosa in diabetic wounds infected with PA103 ([2]; db/db mice): significantly improved | P. aeruginosa infection levels on both the implants and tissues surrounding implants [3]: significantly reduced

B1: Chemokine (C-C motif) ligand 3 (protein, listed as Homo sapiens)
chain: MQVSTAALAVLLCTMALCNQFSASLAADTPTACCFSYTSRQIPQNFIADYFETSSQCSKPGVIFLTKRSRQVCADPSEEWVQKYVSDLELSA
notes: class 1 immunomodulator
infection control in diabetic wounds ([2]; P. aeruginosa PA103 10^3, compared to PBS, FIG. 11A): increases | infection control against P. aeruginosa in diabetic wounds infected with PA103 ([2]; db/db mice): significantly improved | infection control in diabetic animals, compared with LPS or fMLP ([2]; db/db mice, PA103, FIG. 2D): significantly more effective
